# From publication PMC6748952, “Identification, Functional Characterization, and Pharmacological Analysis of Two Sulfakinin Receptors in the Medically-Important Insect Rhodnius prolixus” (Scientific Reports, 2019)
# “Also recorded” adds a separate entry of the source. Where no end group is shown, it is not given here.
# Legend:
# Rhopr-SKR-1 [1] = test: Second messenger pathway assay (PLC inhibitor U73122 or EGTA), Rhopr-SKR-1 in HEK293/CNG cells; type: cell-based, Rhodnius prolixus; conditions: for luminescence response of control agents: cells expressing Rhopr-SKR-1, confirms functional CNG channels (Fig. S4); for EC50: 3 replicates, read-out: EC50, luminescence response; for luminescence response: with 10 μM U73122 (10 minutes incubation)
# Method: (§1) To test whether cAMP and/or Ca^2+ are the second messengers for Rhopr-SKR-1 and Rhopr-SKR-2, HEK293/CNG cells were transfected with each receptor, as previously mentioned, then split into cells that were suspended in calcium-free DMEM with the extracellular calcium chelator EGTA (10 μM) or cells treated with the PLC inhibitor U73122 (10 μM) (Sigma Aldrich, Oakville, ON, Canada). […] HEK293/CNG cells with receptors that work via the Ca^2+ pathway would be unable to evoke luminescence in the presence of U73122. The modified CNG channel in HEK293/CNG causes extracellular Ca^2+ to flow into the cell upon an increase in cytoplasmic cAMP levels. Receptors that solely work through the cAMP pathway would be unable to produce a response in calcium-free media with EGTA. Moreover, receptors that work via both Ca^2+ and cAMP would elicit a response in the presence of either U73122 or EGTA in calcium-free media.
# (§2) HEK293/CNG cells were used via the same protocol as previously stated. Luminescence was measured in 5-second intervals for a total of 30 seconds. In the first set of experiments, the transfected cells were incubated in 10 μM of U73122 for 10 minutes prior to measuring luminescence in response to the addition of sulfated Rhopr-SK-1 or Rhopr-SK-2. To confirm the viability of the utilized cells, media in 1.5% Triton X-100 served as a positive control. In the second set of experiments, cells were suspended in calcium-free DMEM (Thermo Fisher Scientific, Waltham, MA, USA) with 10 μM of the extracellular calcium chelator EGTA. Here, luminescence was measured in response to sulfated Rhopr-SK-1 or Rhopr-SK-2 in calcium-free DMEM in the presence of EGTA. A batch of cells that was also pre-incubated in calcium-free DMEM with EGTA were then washed, incubated in regular DMEM, and then tested in response to sulfated Rhopr-SK-1 and […]. Forskolin, which is a stimulator of adenylate cyclase, and the cAMP analog dibutyryl cAMP (dbcAMP) were utilized as controls to confirm the expression of functional CNG channels in the HEK293/CNG cells. ATP served as a positive control. GraphPad Prism version 8.00 (https://www.graphpad.com) was used to analyze the bioluminescence results.
# PLC pathway = conditions: HEK293/CNG cell line; cited from earlier work
# Method: To test whether cAMP and/or Ca^2+ are the second messengers for Rhopr-SKR-1 and Rhopr-SKR-2, HEK293/CNG cells were transfected with each receptor, as previously mentioned, then split into cells that were suspended in calcium-free DMEM with the extracellular calcium chelator EGTA (10 μM) or cells treated with the PLC inhibitor U73122 (10 μM) (Sigma Aldrich, Oakville, ON, Canada). […] HEK293/CNG cells with receptors that work via the Ca^2+ pathway would be unable to evoke luminescence in the pre ...
# Rhopr-SKR-2 [2] = test: Second messenger pathway assay (PLC inhibitor U73122 or EGTA), Rhopr-SKR-2 in HEK293/CNG cells; type: cell-based, Rhodnius prolixus; conditions: for EC50: 3 replicates, read-out: EC50, luminescence response; for luminescence response: with 10 μM U73122 (10 minutes incubation)
# Method: as §1, §2
# HEK293/CNG cells = test: Negative control: HEK293/CNG cells transfected with empty pIRES2-ZsGreen1 plasmids; type: cell-based, human; conditions: empty pIRES2-ZsGreen1 (not shown)
# Method: An aequorin luminescence assay was utilized in order to measure Ca^2+ signaling in HEK293/CNG cells stably expressing a modified cyclic nucleotide-gated (CNG) channel. The cells were grown in Dulbecco’s Modified Eagle Medium Nutrient Mixture F12-Ham (DMEM/F-12) (Thermo Fisher Scientific, Waltham, MA, USA), with 1% penicillin/streptomycin, 10% fetal bovine serum (FBS), and 100 μg/mL G418 (Geneticin). The HEK293/CNG cells were consistently grown in vented T75 flasks and inclubated at 37 °C in 5% CO2. After reaching approximately 95% confluency, the mammalian cells were transiently co-transfected with the pIRES2-ZsGreen1 expression vector (containing Rhopr-SKR-1 or Rhopr-SKR-2) and the cytoplasmic luminescent reporter aequorin via X-tremeGENE^TM HP DNA Transfection Reagent (Roche Applied Science, Penzberg, Germany). Transfections were performed at a 2:1 ratio for the transfection reagent to the expression vectors. […]
# The bioluminescence assay was performed as previously described. […] Rhopr-SK-1 and Rhopr-SK-2 (as well as nonsulfated Rhopr-SK-1) were prepared in BSA media then plated in duplicates on 96-well plates, with 50 μL of the cells then automatically injected into each of these wells via a Perkin Elmer Wallac 1420 Victor2 plate reader (Perkin Elmer, San Diego, CA, USA). The reader was used to measure luminescence response in consecutive five-second intervals (15 seconds in total). […]
# Rhopr-SKR-2 [3] = test: Functional receptor assay (aequorin bioluminescence), Rhopr-SKR-2 transiently expressed in HEK293/CNG cells; type: cell-based, Rhodnius prolixus; conditions: for EC50 / luminescence response / activation (in words): HEK293/CNG, first 5-second interval, 3 replicates; for EC50: aequorin luminescence, coelenterazine h 5 μM, read-out: EC50, luminescence response
# Method: (§3) An aequorin luminescence assay was utilized in order to measure Ca^2+ signaling in HEK293/CNG cells stably expressing a modified cyclic nucleotide-gated (CNG) channel. The cells were grown in Dulbecco’s Modified Eagle Medium Nutrient Mixture F12-Ham (DMEM/F-12) (Thermo Fisher Scientific, Waltham, MA, USA), with 1% penicillin/streptomycin, 10% fetal bovine serum (FBS), and 100 μg/mL G418 (Geneticin). The HEK293/CNG cells were consistently grown in vented T75 flasks and inclubated at 37 °C in 5% CO2. After reaching approximately 95% confluency, the mammalian cells were transiently co-transfected with the pIRES2-ZsGreen1 expression vector (containing Rhopr-SKR-1 or Rhopr-SKR-2) and the cytoplasmic luminescent reporter aequorin via X-tremeGENE^TM HP DNA Transfection Reagent (Roche Applied Science, Penzberg, Germany). Transfections were performed at a 2:1 ratio for the transfection reagent to the expression vectors. Cells transiently transfected with empty pIRES2-ZsGreen1 expression vectors served as a negative control. The cells were then incubated at 37 °C in 5% CO2 for 72 hours prior to performing the bioluminescence assay.
# (§4) The bioluminescence assay was performed as previously described. At 72 hours post-transfection, the HEK293/CNG cells were harvested from the T75 flasks using a PBS with ethylenediaminetetraacetic acid (EDTA) solution then suspended in a bovine serum albumin (BSA) media (DMEM/F-12 with 1% penicillin/streptomycin and 1% BSA). Prior to the functional assay, the cells were incubated in coelenterazine h (Promega, Madison, WI, USA) to a 5 μM final concentration, and then incubated for 4 hours whilst stirring in the dark. The cells were then diluted 8-fold via BSA media. Rhopr-SK-1 and Rhopr-SK-2 (as well as nonsulfated Rhopr-SK-1) were prepared in BSA media then plated in duplicates on 96-well plates, with 50 μL of the cells then automatically injected into each of these wells via a Perkin Elmer Wallac 1420 Victor2 plate reader (Perkin Elmer, San Diego, CA, USA). The reader was used to measure luminescence response in consecutive five-second intervals (15 seconds in total). An extended Rhopr-FMRFamide (GNDNFMRFamide), tachykinin (Rhopr-TK-2), and Rhopr-Kinin-2 were used as controls to test for specificity. ATP was used as a positive control. HEK293/CNG cells transfected with empty pIRES2-ZsGreen1 vectors served as negative controls.
# R. prolixus = conditions: peptide injection; cited from earlier work
# Source text: Silencing of SKs via RNAi has been linked to stimulation in the intake of food in G. bimaculatus[28] and T. castaneum. Additionally, RNAi-induced silencing of each of the transcripts for the two SKRs in T. castaneum led an increase of food intake by approximately 20% for SKR1[25] and 50% for SKR2[29]. […] In the present study, the transcript coding for Rhopr-SK-1 and Rhopr-SK-2 as well as the ...
# Rhopr-SKR-1 [4] = test: Functional receptor assay (aequorin bioluminescence), Rhopr-SKR-1 transiently expressed in HEK293/CNG cells; type: cell-based, Rhodnius prolixus; conditions: for EC50 / luminescence response / activation (in words): HEK293/CNG, first 5-second interval, 3 replicates; for EC50: aequorin luminescence, coelenterazine h 5 μM, read-out: EC50, luminescence response
# Method: as §3, §4
# [5] = Rhopr-SKR-1, absence of EGTA, media containing calcium
# [6] = Rhopr-SKR-1, absence of U73122, media containing calcium
# [7] = Rhopr-SKR-1, presence of EGTA (10 μM), calcium-free DMEM
# [8] = absence of EGTA, media containing calcium
# [9] = absence of U73122, media containing calcium
# [10] = presence of EGTA (10 μM), calcium-free DMEM
molecule,measurement,setting,value
"COc1ccc2c(c1)CC[C@@H]1[C@@H]2CC[C@]2(C)[C@@H](NCCCCCCN3C(=O)C=CC3=O)CC[C@@H]12 [U73122, reference compound]",effect of U73122 on luminescence response to Rhopr-SK-1 and Rhopr-SK-2,"Rhopr-SKR-1 [1]; Rhopr-SKR-1, 10 μM",abolished the luminescence response to Rhopr-SK-1 and Rhopr-SK-2
same,inhibition of PLC pathway,PLC pathway,successfully inhibit the PLC pathway
same,effect of U73122 on luminescence response to Rhopr-SK-1 and Rhopr-SK-2,Rhopr-SKR-2 [2]; 10 μM,abolished the luminescence response to Rhopr-SK-1 and Rhopr-SK-2
"Nc1ncnc2c1ncn2[C@@H]1O[C@H](COP(=O)(O)OP(=O)(O)OP(=O)(O)O)[C@@H](O)[C@H]1O [ATP, reference compound]","bioluminescent response of ATP, positive control","Rhopr-SKR-1 [1]; Rhopr-SKR-1, all conditions (not shown)",elicited the expected positive bioluminescent response
same,"bioluminescent response of ATP, positive control",Rhopr-SKR-2 [2]; all conditions (not shown),elicited the expected positive bioluminescent response
"CCCC(=O)Nc1ncnc2c1ncn2[C@@H]1O[C@@H]2COP(=O)(O)O[C@H]2[C@H]1OC(=O)CCC [dibutyryl-cAMP, reference compound]",luminescence response of control agents,Rhopr-SKR-1 [1],elicited luminescence responses
"C=C[C@@]1(C)CC(=O)[C@]2(O)[C@@]3(C)[C@@H](O)CCC(C)(C)[C@@H]3[C@H](O)[C@H](OC(C)=O)[C@@]2(C)O1 [forskolin, reference compound]",luminescence response of control agents,Rhopr-SKR-1 [1],elicited luminescence responses
"O=C(O)CN(CCOCCOCCN(CC(=O)O)CC(=O)O)CC(=O)O [EGTA, ethylene glycol-bis(β-aminoethyl ether)-N,N,N′,N′-tetraacetic acid, reference compound]",effect of EGTA on luminescence induced by Rhopr-SK-1 and Rhopr-SK-2,"Rhopr-SKR-1 [1]; Rhopr-SKR-1, calcium-free media containing EGTA (10 μM)",does not abolish the luminescence induced by Rhopr-SK-1 and Rhopr-SK-2
same,effect of EGTA on luminescence induced by Rhopr-SK-1 and Rhopr-SK-2,Rhopr-SKR-2 [2]; calcium-free media containing EGTA (10 μM),does not abolish the luminescence induced by Rhopr-SK-1 and Rhopr-SK-2
"pQFNEY(SO3H)GHMRFamide [Rhopr-SK-1, native R. prolixus sulfakinin 1, custom synthesized]",EC50,Rhopr-SKR-1 [1]; [5],0.294 nM
same,EC50,Rhopr-SKR-1 [1]; [6],0.317 nM
same,EC50,Rhopr-SKR-1 [1]; [7],0.44 nM
same,luminescence response,Rhopr-SKR-1 [1]; Rhopr-SKR-1,unable to elicit a response
same,luminescence in empty-vector cells,HEK293/CNG cells,no luminescence
same,potency of Rhopr-SK-1 relative to Rhopr-SK-2,Rhopr-SKR-2 [3],similar
same,EC50,Rhopr-SKR-2 [3],0.144 nM
same,luminescence response / activation (in words),Rhopr-SKR-2 [3],"activated by sulfated Rhopr-SK-1 and sulfated Rhopr-SK-2 in a dose-dependent manner; also recorded: full, and potent ligand"
same,size of blood meal,R. prolixus,took smaller blood meals
same,EC50,Rhopr-SKR-2 [2]; [8],0.214 nM
same,EC50,Rhopr-SKR-2 [2]; [9],0.103 nM
same,EC50,Rhopr-SKR-2 [2]; [10],0.344 nM
same,luminescence response,Rhopr-SKR-2 [2],unable to elicit a response
same,potency of Rhopr-SK-1 relative to Rhopr-SK-2,Rhopr-SKR-1 [4],one order of magnitude more potent than Rhopr-SK-2
same,EC50,Rhopr-SKR-1 [4],0.532 nM
same,luminescence response / activation (in words),Rhopr-SKR-1 [4],"activated by sulfated Rhopr-SK-1 and sulfated Rhopr-SK-2 in a dose-dependent manner; also recorded: full, and potent ligand"
"APSTMGFQGVR-NH2 [Rhopr-TK-2, R. prolixus tachykinin, control for specificity, reference compound]",luminescence response / activation (in words),Rhopr-SKR-2 [3],little to no response
same,luminescence response / activation (in words),Rhopr-SKR-1 [4],little to no response
"GNDNFMRF-NH2 [extended Rhopr-FMRFamide, control for specificity, reference compound]",luminescence response / activation (in words),Rhopr-SKR-2 [3],little to no response
same,luminescence response / activation (in words),Rhopr-SKR-1 [4],little to no response
"AKFSSWG-NH2 [Rhopr-Kinin-2, R. prolixus kinin, control for specificity, reference compound]",luminescence response / activation (in words),Rhopr-SKR-2 [3],little to no response
same,luminescence response / activation (in words),Rhopr-SKR-1 [4],little to no response
"GGSDEKFDDY(SO3H)GYMRFamide [Rhopr-SK-2, native R. prolixus sulfakinin 2, custom synthesized]",EC50,Rhopr-SKR-1 [1]; [5],6.86 nM
same,EC50,Rhopr-SKR-1 [1]; [6],13.3 nM
same,EC50,Rhopr-SKR-1 [1]; [7],30.2 nM
same,luminescence response,Rhopr-SKR-1 [1]; Rhopr-SKR-1,unable to elicit a response
same,luminescence in empty-vector cells,HEK293/CNG cells,no luminescence
same,luminescence of Rhopr-SK-2 vs Rhopr-SK-1,"Rhopr-SKR-2 [3]; 1 × 10^−6 M, one way ANOVA, Tukey, ***P < 0.001, 3 replicates",lower
same,EC50,Rhopr-SKR-2 [3],0.101 nM
same,luminescence response / activation (in words),Rhopr-SKR-2 [3],"activated by sulfated Rhopr-SK-1 and sulfated Rhopr-SK-2 in a dose-dependent manner; also recorded: partial, though potent ligand"
same,EC50,Rhopr-SKR-2 [2]; [8],0.134 nM
same,EC50,Rhopr-SKR-2 [2]; [9],0.121 nM
same,EC50,Rhopr-SKR-2 [2]; [10],0.314 nM
same,luminescence response,Rhopr-SKR-2 [2],unable to elicit a response
same,EC50,Rhopr-SKR-1 [4],8.69 nM
same,luminescence response / activation (in words),Rhopr-SKR-1 [4],"activated by sulfated Rhopr-SK-1 and sulfated Rhopr-SK-2 in a dose-dependent manner; also recorded: partial, though potent ligand"
